Source: article PMC6479099, “Aminoguanidines: New leads for treatment of Giardia duodenalis infection” (International Journal for Parasitology: Drugs and Drug …, 2019)

How the values were obtained:
[1] = system: Giardia BAH2c2 trophozoites; assay: Electron microscopy (TEM, SEM) of trophozoites; assay type: cell-based, Giardia duodenalis
Method: To determine any effects robenidine has on the ultrastructure of Giardia trophozoites, transmission electron microscopy (TEM) was performed. Giardia BAH2c2 trophozoites were exposed to 3 X IC50 of robenidine or metronidazole for 1 h and placed on ice for 40 min to detach trophozoites then washed twice with PBS (900×g, 10 min 4 °C) and fixed with a combination of glutaraldehyde and formaldehyde overnight. Cells were washed with PBS +4% sucrose before fixation with osmium tetroxide for 1 h. Samples were dehydrated through a graded ethanol series (70–100%) followed by suspension in propylene oxide for ten minutes. Samples were centrifuged and suspended in 1:1 mixture of propylene oxide and epoxy resin for an hour before centrifugation. Following overnight suspension in 100% epoxy resin samples were resuspended in fresh resin and polymerized at 70 °C for 24 h. After sectioning samples were stained with uranyl acetate and lead citrate. Sections were imaged with a FEI tecnai G2 Spirit Transmission Electron microscope (Adelaide Microscopy, University of Adelaide).
To determine the effect that robenidine and metronidazole has on the cell surface of the Giardia trophozoites, scanning electron microscopy (SEM) was performed as follows. Giardia BAH2c2 trophozoites were prepared as for TEM, however they were exposed to compounds for 2 or 4 h. […]

[2] = In vitro cytotoxicity (WST-1), human hepatocellular carcinoma; assay type: cell-based; details: Hep G2 human hepatocellular carcinoma cells, 24 h exposure
Method: (§1) Cells were passaged every 3 days. Assays were performed in 96 well plates in duplicate. Wells were seeded with 50 000 cells.

[3] = In vitro cytotoxicity, murine macrophage cells; details: mouse
[4] = system: bacteria; assay: Off-target antibacterial effects; assay type: cell-based
[5] = In vitro cytotoxicity (WST-1), human lung fibroblast; assay type: cell-based; details: HEL 299 human lung fibroblast cells, 24 h exposure
Method: as §1

[6] = system: G. duodenalis trophozoites; assay: Giardia recovery assay; assay type: cell-based, Giardia duodenalis; details: 5 h at 5x the IC50, counts at 24 and 48 h post exposure
Method: G. duodenalis trophozoites were harvested on ice as outlined above and 5 × 10^5 cells/mL were added to 1.5 mL centrifuge tubes. […] After exposure cells were collected by placing tubes on ice for 40 min followed by centrifugation at 900×g for 5 min. The supernatant was removed and cells were resuspended in 8 mL of fresh media (in a 9 mL culture tube). The number of trophozoites was counted using a haemocytometer and cells were incubated for 48 h with cell numbers being determined at 24 and 48 h.
Fig. 7 Recovery assay of Giardia duodenalis exposed to robenidine and metronidazole. Giardia trophozoites were exposed to robenidine or metronidazole for 5 h at 5x the IC50. Key: closed circle – growth control, triangle – metronidazole, square – robenidine, open circle – NCL 062, diamond – NCL 099. Cell numbers were determined at 24 and 48 h post exposure. Error ± SD.

[7] = system: Giardia duodenalis trophozoites; assay: Modified adherence assay; assay type: cell-based; details: 4 μM, 5 h exposure
Method: A second screening method, based on counting adherent trophozoites, was developed and used to validate the primary screen method, modified from earlier adherence assay protocols ([Crouch et al., 1986]). The assay was prepared in 24 well plates with plastic coverslips placed in the bottom. Trophozoites were prepared as above by placing on ice and ∼5 × 10^5 cells/mL were added to each well. Drugs prepared in DMSO were added at the required concentration, with the DMSO concentration never exceeding 1%. Assay plates were incubated for 5 h at 37 °C under anaerobic conditions, the media removed and cells adhering to the coverslips were fixed with glutaraldehyde or methanol. Once the coverslips were dry, cells were stained with a Romanowsky stain variant (Rapid stain), fixed to a glass slide and imaged at 10x or 100x magnification. Images (10x magnification) were processed with DotCount v1.2 software (http://reuter.mit.edu/, 2008–2012 ^© Martin Reuter) to count the number of cells present and data analysed using GraphPad Prism version 6.00 for Windows, GraphPad Software, La Jolla California USA, www.graphpad.com. Images (100x magnification) were assessed for obvious morphological changes.
The results for the in vitro drug efficacy studies were analysed using GraphPad Prism version 6.00 for Windows, GraphPad Software, La Jolla California USA, www.graphpad.com. For the resazurin reduction assay the mean and standard error of the mean were determined with each assay completed in triplicate. The IC50 was calculated using the log (inhibitor) vs. normalised response – variable slope function in Graphpad Prism. For the adherence assay mean and standard error of the mean were calculated and data analysed using an unpaired t-test, relative to untreated control.
Fig. 3 Inhibition of adherence of Giardia duodenalis by metronidazole (Mz), robenidine, NCL 062 and NCL 099. Cells were exposed to the compounds for 5 h before staining. Stained cells were imaged at 10x magnification and counted using DotCount™ software. Each assay was completed in triplicate and 5 images taken per sample. Top. Number of adherent trophozoites after exposure to 4 μM of each compound for 5 h; Bottom. An example of the Dotcount software identifying trophozoites at higher magnification. Left: stained trophozoites, Right: highlighted trophozoites identified by the Dotcount software. Each highlighted cell is counted individually. Error ± SEM. * p-value <0.05, ** p-value <0.0001.

In the case of `N=C(N/N=C/c1ccc(Cl)cc1)N/N=C/c1ccc(Cl)cc1` [Robenidine, robenidine], the “Ultrastructural changes by TEM” value ([1]; 3 x IC50, 1 h exposure) is reported as “extreme membrane blebbing”, the “Cell surface changes by SEM” value ([1]; 3 x IC50, 2 h exposure) is reported as “extreme membrane blebbing” and the GI50 at 24 h [2] is reported as 25.5 µM. For the same compound, the GI50 [3] was 17.1 µM, the Off-target antibacterial effects [4] was “off-target antibacterial effects” and the GI50 at 24 h [5] was 17.7 µM. The “Recovery of trophozoites after short-term exposure” value [6] was “unable to recover” and the “Effect on adherence of trophozoites” value [7] was “complete inhibition of adherence”.
